Measured values reported in patent US20250230155A1 (Vanderbilt University, priority 2021, published 2025).

Biological target: T1, human mAChR M4 (Homo sapiens, UniProt P08173)
T1 construct: expressed in transfected cells
T1 sequence (P08173 1-479): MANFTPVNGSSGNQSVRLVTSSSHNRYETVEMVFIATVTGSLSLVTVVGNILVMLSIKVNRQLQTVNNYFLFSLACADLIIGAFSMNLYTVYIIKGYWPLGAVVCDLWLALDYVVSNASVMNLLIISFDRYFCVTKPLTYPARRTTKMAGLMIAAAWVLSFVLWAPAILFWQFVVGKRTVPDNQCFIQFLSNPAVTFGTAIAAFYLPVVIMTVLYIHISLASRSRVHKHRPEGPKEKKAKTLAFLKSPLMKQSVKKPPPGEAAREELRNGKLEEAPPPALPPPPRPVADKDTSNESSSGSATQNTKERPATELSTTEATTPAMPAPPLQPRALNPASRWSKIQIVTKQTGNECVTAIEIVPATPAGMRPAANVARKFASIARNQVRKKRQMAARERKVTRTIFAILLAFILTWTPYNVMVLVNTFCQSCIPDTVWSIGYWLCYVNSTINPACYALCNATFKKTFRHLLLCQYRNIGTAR
Test: mAChR M4 cell-based functional assay (calcium mobilization, CHO-K1 hM4-Gqi5 cells)
Conditions: for Emax at 30 µM: CHO-K1, % ACh maximum at 30 μM, human M4; for EC50: positive allosteric modulator activity, increase in the EC20 acetylcholine response, CHO-K1 hM4-Gqi5 cells, read-out: Human M4 EC50
How it was run: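 Fluorescent calcium read-out (Fluo-4 AM, FDSS, 1 Hz) in hM4-Gqi5 CHO-K1 cells, 11-point 1:3 compound series. Agonism scored on compound addition, PAM activity as increase of the 144 s EC20 acetylcholine response, antagonism as decrease of the 230 s EC80 response; four-parameter logistic fits give EC50 and Emax.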

SMILES | Emax at 30 µM | EC50
Cc1cc(C#N)cnc1N1CCc2ncc(Nc3c(F)cccc3Cl)cc2C1 [compound 111, 6-[3-(2-chloro-6-fluoro-anilino)-7,8-dihydro-5H-1,6-naphthyridin-6-yl]-5-methyl-pyridine-3-carbonitrile] | 93% | 345 nM
Cc1c(Cl)nc(C2CC2)nc1N1CCc2ncc(Nc3ccccc3F)cc2C1 [compound 90, 6-(6-chloro-2-cyclopropyl-5-methyl-pyrimidin-4-yl)-N-(2-fluorophenyl)-7,8-dihydro-5H-1,6-naphthyridin-3-amine] | 72% | 7600 nM
O=C(NCc1ccncc1)c1ccc(N2CCc3ncc(C(F)(F)F)cc3C2)nn1 [Example 511, N-(pyridin-4-ylmethyl)-6-(3-(trifluoromethyl)-7,8-dihydro-1,6-naphthyridin-6(5H)-yl)pyridazine-3-carboxamide] | 75% | 3160 nM
Cc1cc(C(=O)N(C)Cc2ccncc2)cnc1N1CCc2ncc(-c3cn(C)nc3C)cc2C1 [Example 454, 6-(3-(1,3-dimethyl-1/-pyrazol-4-yl)-7,8-dihydro-1,6-naphthyridin-6(5H)-yl)-N,5-dimethyl-N-(pyridin-4-ylmethyl)nicotinamide] | 60% | 3900 nM
Cc1nc(Cl)c(C)c(N2CCc3ncc(Oc4ccc5c(c4)OCCO5)cc3C2)n1 [compound 206, 6-(6-chloro-2,5-dimethyl-pyrimidin-4-yl)-3-(2,3-dihydro-1,4-benzodioxin-6-yloxy)-7,8-dihydro-5H-1,6-naphthyridine] | 77% | 534 nM
Cc1cc(C#N)cnc1N1CCc2ncc(-c3cc(F)cc(F)c3C)cc2C1 [Example 597, 6-(3-(3,5-difluoro-2-methylphenyl)-7,8-dihydro-1,6-naphthyridin-6(5H)-yl)-5-methylnicotinonitrile] | 69% | 2870 nM

Now those with a lower EC50, led by results:

Emax at 30 µM | EC50 | SMILES
76% | 22 nM | COC1(C)CN(C(=O)c2cc(C)c(N3CCc4ncc(N5CCCn6nccc65)cc4C3)nn2)C1 [Example 552, (6-(3-(6,7-dihydropyrazolo[1,5-a]pyrimidin-4(5H)-yl)-7,8-dihydro-1,6-naphthyridin-6(5H)-yl)-5-methylpyridazin-3-yl)(3-methoxy-3-methylazetidin-1-yl)methanone]
90% | 167 nM | Cc1cc(C#N)cnc1N1CCc2ncc(-c3c(C)noc3C)cc2C1 [compound 109, 6-[3-(3,5-dimethylisoxazol-4-yl)-7,8-dihydro-5H-1,6-naphthyridin-6-yl]-5-methyl-pyridine-3-carbonitrile]
81% | 140 nM | Cc1nc(Cl)c(C)c(N2CCc3ncc(-c4cnc(C)s4)cc3C2)n1 [compound 199, 5-[6-(6-chloro-2,5-dimethyl-pyrimidin-4-yl)-7,8-dihydro-5H-1,6-naphthyridin-3-yl]-2-methyl-thiazole]
109% | 23 nM | Cc1cc(C#N)cnc1N1CCc2ncc(Nc3ccnn3C)cc2C1 [Example 306, 5-methyl-6-(3-((1-methyl-1H-pyrazol-5-yl)amino)-7,8-dihydro-1,6-naphthyridin-6(5H)-yl)nicotinonitrile]
85% | 213 nM | Cc1cc(C(=O)N2CC3(COC3)C2)nnc1N1CCc2ncc(-n3cccn3)cc2C1 [Example 571, (6-(3-(1H-pyrazol-1-yl)-7,8-dihydro-1,6-naphthyridin-6(5H)-yl)-5-methylpyridazin-3-yl)(2-oxa-6-azaspiro[3.3]heptan-6-yl)methanone]
77% | 223 nM | Cc1cc(C#N)cnc1N1CCc2ncc(Nc3ccccn3)cc2C1 [Example 6]
89% | 217 nM | Cc1cc(C(=O)N2CCCC2)nnc1N1CCc2ncc(N3CCCn4nccc43)cc2C1 [Example 488, (6-(3-(6,7-dihydropyrazolo[1,5-a]pyrimidin-4(5H)-yl)-7,8-dihydro-1,6-naphthyridin-6(5H)-yl)-5-methylpyridazin-3-yl)(pyrrolidin-1-yl)methanone]
